# Assay results taken from the METLIN SMRT retention time set (Domingo-Almenara et al. 2019).
# Assay: gradient 5% acetonitrile 3 min, to 50% in 2 min, to 85% in 15 min, held 3 min, 100 µL/min
# Details: column: Zorbax Extend-C18 2.1 x 50 mm; eluents: water / acetonitrile, 0.1% formic acid
# Method in brief: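 Retention times of pure standards were taken from adduct peaks that were selected by computer and manually inspected. Over 3 months, mixtures of ~100 molecules were run by HPLC–quadrupole time-of-flight mass spectrometry in positive and negative ionization mode. The Zorbax Extend-C18 column (2.1 × 50 mm, 1.8 μm) ran at 100 μL/min in water and acetonitrile, each containing 0.1% formic acid, with 40 μL dead volume and 900 μL dwell volume.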
row,SMILES,RP-LC retention time
1,COc1ccc(S(=O)(=O)N2CC3CN(C(=O)c4ccncc4)CC(C2)O3)cc1,621 s
2,COc1ccc(N2CCN(C(=O)C3CCN(C(=O)C4Sc5ccccc5NC4=O)CC3)CC2)cc1 (stereo not given),705 s
3,COc1ccc(NC(=O)c2nnc(CSCC(=O)NCCc3c[nH]c4ccc(C)cc34)s2)cc1,910 s
4,Cc1ccc(C)c(S(=O)(=O)Nc2ccc(-c3cn4ccc(C)nc4n3)cc2)c1,678 s
5,COc1ccc(-c2nc(-c3ccc4oc(C)nc4c3)no2)cc1,1090 s
6,CC(C)(C)c1csc(-c2csc(S(=O)(=O)NCC3CCCCC3)c2)n1,1410 s
7,Cc1cc(C)cc(NC(=O)C2CCN(S(=O)(=O)c3ccc4c(c3)sc(=O)n4C(C)C)CC2)c1,1070 s
8,Cc1nc(-c2ccccn2)cc2nn(CC(=O)NCCC(C)C)c(=O)n12,713 s
9,COc1ccc(-c2cc(-c3ccccc3)c(-c3ccccc3)nn2)cc1,1100 s
10,O=S(=O)(c1cccs1)N1CCN(c2cnn3cnnc3c2)CC1,652 s
11,CN(C)C[C@@H]1CN(c2ccncn2)C[C@H]1NC(=O)c1ccc2ccccc2n1,595 s
12,CCOC(=O)Cn1c(C2CC(=O)N(c3cc(OC)ccc3OC)C2)nc2ccccc21 (stereo not given),725 s
13,CCOC(=O)CSc1nnc(NC(=O)c2ccc(S(=O)(=O)N(C)C)cc2)s1,772 s
14,Cc1nc(NC(=O)c2ccc(OCc3nc(C4CC4)cs3)cc2)sc1C,969 s
15,CCOCCCNC(=O)C1CCCN(c2nnc(C)c3c(C)n(-c4ccc(C)cc4)nc23)C1 (stereo not given),687 s
16,O=C(COc1ccccc1F)N1CCN(Cc2nc(C3CC3)cs2)CC1,640 s
17,COc1ccc(C2Cn3nnc(-c4nc(-c5ccc(C(F)(F)F)cc5)no4)c3CO2)cc1 (stereo not given),1270 s
18,CCOC(=O)c1cnc2c(-c3cccc(Cl)c3)c(C)nn2c1N,1180 s
19,CCn1cc(CCNC(=O)c2cncc(Br)c2)c2cccnc21,699 s
20,Cn1ncc2c(N3CCCCC3)nc(C(=O)N3CCN(c4ccc(Cl)cc4)CC3)nc21,1020 s
21,CCC(=O)N1CCc2cc(C)c(S(=O)(=O)NCc3ccco3)cc21,664 s
22,COc1cccc(-c2cc(=O)n3c4ccccc4n(CC(=O)Nc4ccc5c(c4)OCO5)c3n2)c1,924 s

row,SMILES,RP-LC retention time
1,CC(NC(=O)C(=O)N1CCOCC1)C(c1cccs1)N1CCN(c2ccccc2F)CC1 (stereo not given),692 s
2,COc1ccc(Nc2c(-c3ccc(N(C)C)cc3)nc3cnccn23)cc1,740 s
3,CCc1cc(=O)n(CC(=O)N(C)c2cccc(C)c2)c(-c2ccccc2)n1,1110 s
4,CCN(CC)C(=O)c1cnc2snc(C)c2c1N1CCC(C(=O)Nc2ccc(OC)c(Cl)c2)CC1,900 s
5,O=C(Nc1nc2c(s1)CCC2)c1ccc2c(c1)OCO2,812 s
6,Cc1noc(C)c1S(=O)(=O)N1CCc2nc[nH]c2C1,570 s
7,COC(=O)c1ccc(NC(=O)C(=O)NCC2CCN(S(C)(=O)=O)CC2)cc1,828 s
8,Cc1nc2cc(N3CC(C(=O)Nc4ccc(F)cc4C)CC3=O)ccc2o1 (stereo not given),718 s
9,CCOc1ccc(-c2cn3ccn(-c4ccc(OCC)cc4)c(=O)c3n2)cc1,896 s
10,COc1ccc(OC)c(CNC(=O)C2=C3CCCN3c3ccc(F)cc3S2(=O)=O)c1,872 s
11,COc1cc2c(c(OC)c1OC)-c1ccc(OC)c(=O)cc1[C@@H](NC(=O)c1ccccc1)CC2,722 s
12,O=C(NC1CCCC1)c1c2c(nc3ccccc13)CCCC2,625 s
13,Cc1cc(C)cc(Nc2nc(C)cc3nn(CC(=O)NC(C)C)c(=O)n23)c1,949 s
14,CCSc1nnc(NC(=O)CSc2nnc(-c3ccco3)o2)s1,726 s
15,COc1ccc(CCNC(=O)C2CCc3nc(N4CCC(C)CC4)ncc3C2)cc1OC (stereo not given),757 s
16,O=C(Cn1c(=O)c2nncn2c2ncccc21)N1CCN(c2ccccc2)CC1,674 s
17,CCCNS(=O)(=O)c1c(C)sc(C)c1-c1cc(C(F)(F)F)on1,1130 s
18,Cc1cccc(N2CCN(S(=O)(=O)c3cc(-c4cc(C(F)(F)F)[nH]n4)sc3C)CC2)c1C,1290 s
19,O=C1CCCN1CCCN1C(=O)[C@H]2CN(Cc3cccc(Cl)c3)C[C@H]2C1=O,628 s
20,CCCCNC(=O)C1CCC(=O)N(c2ccc(OC)cc2)C1c1ccc(OC)c(OC)c1 (stereo not given),658 s
21,CCCCN(C)C(=O)C1CCN(c2cncnc2N2CCOCC2)CC1,614 s
22,Cc1nccn1Cc1nc(-c2ccc(Br)cc2)no1,663 s

row,SMILES,RP-LC retention time
1,Cc1ccc(CNc2ccc(-c3nc(-c4ccc(F)cc4)no3)cn2)cc1,1250 s
2,O=C1N=C2C(=Nc3ccccc32)C(=O)N1CCN1CCN(c2ccccc2Cl)CC1,743 s
3,CC(C)c1cc(N2CCN(C(=O)C3CC3)CC2)nc2nncn12,586 s
4,CCn1nc(C)c(CCNC(=O)c2cc3c(=O)n(Cc4ccco4)ccc3nc2C)c1C,610 s
5,COc1ccc(OC)c(NC(=O)C2C(=O)NC3(C)CC2c2ccccc2O3)c1 (stereo not given),875 s
6,COCCN1C(=O)[C@H]2CN(Cc3ccc(OC)c(OC)c3Cl)C[C@H]2C1=O,620 s
7,COc1ccc(CNC(=O)C2(C)CCCN(S(=O)(=O)c3ccccc3Cl)C2)cc1 (stereo not given),932 s
8,CCn1cc(C(CNC(=O)Nc2ccc(OC)cc2OC)c2cccnc2)c2ccccc21 (stereo not given),700 s
9,CCSc1ccccc1C(=O)Nc1cccc2ccc(OC)nc12,1200 s
10,CCOc1ccccc1NC(=O)c1cnc2c(c1)c(=O)n(C)c(=O)n2-c1ccccc1,961 s
11,COCCNC(=O)C1CCN(S(=O)(=O)c2ccc3c(c2)NC(=O)CO3)CC1,862 s
12,COCCC(=O)N(C)Cc1cccnc1Oc1ccccc1,1060 s
13,CCn1nccc1-c1cccc(-c2noc(-c3ccc(Br)o3)n2)c1,1180 s
14,COc1cn(CC(=O)NCC2CCCO2)c(CN2CCC(C)CC2)cc1=O (stereo not given),570 s
15,COc1ccccc1NS(=O)(=O)c1cc2n(c1)CCN(CC(C)C)C2=O,798 s
16,Cc1ccc(S(=O)(=O)N2CCN(S(=O)(=O)N3CCCCC3)CC2)cc1,922 s
17,Cc1cc(C)cc(NS(=O)(=O)c2c(C)sc(C)c2-c2cc(C(F)(F)F)on2)c1,1240 s
18,COc1cccc(CNS(=O)(=O)c2ccc3c(c2)C(=O)N(C)c2ncccc2O3)c1,933 s
19,CCOc1nccnc1N1CCC(N(C)C(=O)c2ccsc2)C1 (stereo not given),724 s
20,Cc1cc(=O)n(CCc2ccccc2)c(N2CCCC2)n1,742 s
21,CCC(=O)N1CCN(c2ccc(-n3c(=O)ccc4cnc5ccc(-c6cnc7ccccc7c6)cc5c43)cc2C(F)(F)F)CC1,861 s
